# Results: patent publication US5686486A, “4-hydroxy-benzopyran-2-ones and 4-hydroxy-cycloalkyl[b]pyran-2-ones useful to treat retroviral infections” (priority 1995, dated 1997)
# Where “and” joins values, the source holds several entries; their conditions need not be identical. Equal entries are not always repeated. Structures can show the parent of a compound that is named as a salt. Where two headings read alike, the source gives them in different places.
# Biological target: HIV-1 protease (Human immunodeficiency virus type 1 group M subtype B, UniProt P04585)
# Assay: biochemical
# Conditions: for IC50: HIV-1 Protease IC50; for inhibition at 0.123 µM: read-out: HIV-1 Protease % Inhib, dose 0.123 uM
# Protocol: The HIV protease screening assay is based on fluorescently labeled substrate which can be resolved from nonlabeled cleavage product using special beads coated with streptavidin. The substrate is biotinylated at the amino terminal arginine and fluorescently labeled with fluorescein isothiocynate (FITC) at the carboxyl terminal lysine. This assay has been employed to detect novel, nonpeptidic inhibitors of HIV-1 protease. Substrate (20 μl of 0.2 μM), sample (10 μl of desired concentration), and enzyme (10 μl of 0.1 μM) are added to a 96 well pandex plate. The assay is run in 0.1M sodium acetate buffer at pH 5.5 in the presence of 1.0M sodium chloride and 0.05% NP-40 with incubated in the dark for one hour at room temperature. Strepavidin coated polystyrene beads {40 μl of 0.1% (w/v)} are added and the plate is incubated in the dark for an additional half hour. The labeled cleavage product is separated from the unreacted substrate via filtration and is read on the Idexx screen machine. The data are analyzed by appropriate computer algorithms to ascertain percent inhibition values.
# [1] = read-out: HIV-1 Protease % Inhib
# [2] = dose 3.300 uM, read-out: HIV-1 Protease % Inhib
# [3] = dose 10.000 uM, read-out: HIV-1 Protease % Inhib
# [4] = dose 30.000 uM, read-out: HIV-1 Protease % Inhib
# [5] = read-out: HIV-1 Protease % Inhib, dose 1.000 uM
# [6] = read-out: HIV-1 Protease % Inhib, dose 10.000 uM
# [7] = read-out: HIV-1 Protease % Inhib, dose 100.000 uM
# [8] = read-out: HIV-1 Protease % Inhib, dose 0.370 uM
# [9] = read-out: HIV-1 Protease % Inhib, dose 1.100 uM
# [10] = read-out: HIV-1 Protease % Inhib, dose 3.300 uM
# [11] = read-out: HIV-1 Protease % Inhib, dose 30.000 uM
# [12] = dose 0.370 uM, read-out: HIV-1 Protease % Inhib
# [13] = dose 1.100 uM, read-out: HIV-1 Protease % Inhib
smiles,measurement,setting,value
"Cc1cccc(C)c1S(=O)(=O)Nc1cccc(C(c2c(O)c3c(oc2=O)CCCCCC3)C2CC2)c1 (stereo not shown) [Example 329, N-[3-[Cyclopropyl(5,6,7,8,9,10-hexahydro-4-hydroxy-2-oxo-2H-cycloocta[b]pyran-3-yl)methyl]phenyl]-2,6-dimethyl-benzenesulfonamide]",inhibition at 0.37 µM,[1],10.2%
same,inhibition at 1.1 µM,[1],42.2%
same,inhibition at 3.3 µM,[1],75.3%
same,inhibition at 10 µM,[1],91.8%
same,inhibition at 30 µM,[1],102%
"O=c1oc2c(c(O)c1C(c1ccc(NS(=O)(=O)c3ccc(F)cc3)cc1)C1CC1)CCCCCC2 (stereo not shown) [Example 474, Benzenesulfonamide, 4-fluoro-N-[4-[cycloptopyl(5,6,7,8,9,10-hexahydro-4-hydroxy-2-oxo-2H-cycloocta[b]pyran-3-yl)methyl]phenyl]-]",inhibition at 3.3 µM,[2],11.4%
same,inhibition at 10 µM,[3],40.4%
same,inhibition at 30 µM,[4],57.2%
"CCC(c1cccc(NC(=O)CC[C@H](NC(=O)OC(C)(C)C)C(=O)OC(C)(C)C)c1)c1c(O)c2ccccc2oc1=O (stereo partly drawn) [Example 51, L-Glutamine, N2-[(1,1-dimethylethoxy)carbonyl]-N-[3-[1-(4-hydroxy-2-oxo-2H-1-benzopyran-3-yl)propyl]phenyl]-, 1,1-dimethylethyl ester]",inhibition at 1 µM,[5],< 10%
same,inhibition at 10 µM,[6],< 10%
same,inhibition at 100 µM,[7],39.6%
"CCC(c1ccc(Br)cc1)c1c(O)c2ccccc2oc1=O (stereo not shown) [Example 91, Coumarin, 3-[1-(4-bromophenyl)propyl]-4-hydroxy-]",HIV-1 Protease % Inhib,dose 100.000 uM,94.41% and 71.61%
same,inhibition at 1 µM,[5],< 10%
same,inhibition at 10 µM,[6],38.4%
"C=CCOc1ccc2c(O)c(C(CC)c3ccccc3)c(=O)oc2c1 (stereo not drawn) [Example 78, Coumarin, 7-(allyloxy)-3-(α-ethylbenzyl)-4-hydroxy-]",IC50,,8.4 µM
same,inhibition at 1 µM,[5],< 10%
same,inhibition at 10 µM,[6],65.7%
same,inhibition at 100 µM,[7],83.5%
"CCC(c1cccc(O)c1)c1c(O)c2ccccc2oc1=O (stereo not shown) [Example 103, Coumarin, 4-hydroxy-3-[1-(3-hydroxyphenyl)propyl]-]",HIV-1 Protease % Inhib,dose 100.000 uM,87.29% and 73.35%
same,inhibition at 1 µM,[5],< 10%
same,inhibition at 10 µM,[6],25.7%
same,inhibition at 100 µM,[7],80.9%
"CCCCNC(=O)c1cccc(C(C)c2c(O)c3ccccc3oc2=O)c1 (stereo not shown) [Example 31, Coumarin, 3-[1-[3-[(butylamino)carbonyl]phenyl]ethyl]-4-hydroxy-]",inhibition at 1 µM,[5],< 10%
same,inhibition at 10 µM,[6],< 10%
same,inhibition at 100 µM,[7],53.7%
"CCC(c1cccc(N)c1)c1c(O)c2ccccc2oc1=O (stereo not shown) [Example 40, Coumarin, 3-[1-(3-aminophenyl)propyl]4-hydroxy-, monohydrochloride-]",inhibition at 1 µM,[5],< 10%
same,inhibition at 10 µM,[6],< 10%
same,inhibition at 100 µM,[7],51.3%
"Cc1cc(C)c2c(c1)C(c1c(O)c3ccccc3oc1=O)CCO2 (stereo not shown) [Example 153, 4-Hydroxy-6',8'-Dimethyl-3',4'-dihydro-2'H-[3',4']bicromenyl-2-one]",HIV-1 Protease % Inhib,dose 100.000 uM,79.57% and 115.36%
same,inhibition at 1 µM,[5],< 10%
same,inhibition at 10 µM,[6],34%
"O=c1oc2c(c(O)c1C(c1ccccc1)C1CC1)CCCCCCCCCC2 (stereo not shown) [Example 114, 3-(Cyclopropylphenylmethyl)-5,6,7,8,9,10,11,12,13,14-decahydro-4-hydroxy-2H-cyclododeca[b]pyran-2-one]",inhibition at 1 µM,"dose 1.000 uM, read-out: HIV-1 Protease % Inhib",< 10%
same,inhibition at 10 µM,[3],< 10%
same,inhibition at 100 µM,"dose 100.000 uM, read-out: HIV-1 Protease % Inhib",14.1%
"CC(C)C(c1ccccc1)c1c(O)c2ccccc2oc1=O (stereo not shown) [Example 9, 4-Hydroxy-3-(2-methyl-1-phenylpropyl)-coumarin]",IC50,,10.6 µM
same,inhibition at 1 µM,[5],12.1%
same,inhibition at 10 µM,[6],65%
same,inhibition at 100 µM,[7],98.3%
"CC(C)(C)OC(=O)N[C@H](Cc1c[nH]cn1)C(=O)Nc1cccc(C(c2c(O)c3c(oc2=O)CCCCCC3)C2CC2)c1 (stereo partly drawn) [Example 204, Carbamic acid, [2-[[3-[cyclopropyl(5,6,7,8,9,10-hexahydro-4-hydroxy-2-oxo-2H-cycloocta[b]pyran-3-yl)methyl]phenyl]amino]-1-(R)-(1H-imidazol-4-ylmethyl)-2-oxoethyl]-, 1,1-dimethylethyl ester]",inhibition at 0.123 µM,,49%
same,inhibition at 0.37 µM,[8],86.5%
same,inhibition at 1.1 µM,[9],107%
same,inhibition at 3.3 µM,[10],114%
same,inhibition at 10 µM,[6],117%
same,inhibition at 30 µM,[11],116%
"CC(C)CC(c1cccc(NS(=O)(=O)c2cccc3cccnc23)c1)c1c(O)c2c(oc1=O)CCCCCC2 (stereo not shown) [Example 428, 8-Quinolinesulfonamide, N-[3-[1-(5,6,7,8,9,10-hexahydro4-hydroxy-2-oxo-2H-cycloocta[b]pyran-3-yl)-3-methylbutyl]phenyl]-]",inhibition at 0.123 µM,,86.3%
same,inhibition at 0.37 µM,[8],84%
same,inhibition at 1.1 µM,[9],86.5%
same,inhibition at 3.3 µM,[10],87.1%
same,inhibition at 10 µM,[6],87.9%
same,inhibition at 30 µM,[11],84.2%
"O=c1oc2c(c(O)c1C(c1cccc(NS(=O)(=O)c3ccc(Cl)cc3Cl)c1)C1CC1)CCCCCC2 (stereo not shown) [Example 305, 2,4-Dichloro-N-[3-[cyclopropyl(5,6,7,8,9,10-hexahydro-4-hydroxy-2'-oxo-2H-cycloocta[b]pyran-3-yl)methyl]phenyl]-benzenesulfonamide]",inhibition at 0.123 µM,,60.4%
same,inhibition at 0.37 µM,[8],86.2%
same,inhibition at 1.1 µM,[9],92.4%
same,inhibition at 3.3 µM,[10],95.2%
same,inhibition at 10 µM,[6],99.8%
same,inhibition at 30 µM,[11],107%
"CCC(c1ccccc1)c1c(O)c2ccc(C)cc2oc1=O (stereo not shown) [Example 90, Coumarin, 4-hydroxy-7-methyl-3-(1-phenylpropyl)-]",inhibition at 1 µM,[5],< 10%
same,inhibition at 10 µM,[6],29.7%
same,inhibition at 100 µM,[7],89.2%
"Cc1cccc(Cl)c1S(=O)(=O)Nc1cccc(C(c2c(O)c3c(oc2=O)CCCCCC3)C2CC2)c1 (stereo not shown) [Example 287, 2-Chloro-N-[3-[cyclopropyl(5,6,7,8,9,10-hexahydro4-hydroxy-2-oxo-2H-cycloocta[b]pyran-3-yl)methyl]phenyl]-6-methyl-benzenesulfonamide]",inhibition at 0.37 µM,[12],14.1%
same,HIV-1 Protease % Inhib,dose 1.100 uM,36.69%
same,inhibition at 1.1 µM,[13],44.1%
same,HIV-1 Protease % Inhib,dose 3.300 uM,64.32%
same,inhibition at 3.3 µM,[2],68.2%
same,HIV-1 Protease % Inhib,dose 10.000 uM,92.75%
same,inhibition at 10 µM,[3],85.8%
same,HIV-1 Protease % Inhib,dose 30.000 uM,106.21%
same,inhibition at 30 µM,[4],86.7%
"O=c1oc2ccccc2c(O)c1C1(c2ccccc2)CC1 [Example 142, 4-Hydroxy-3-(1-phenyl-cyclopropyl)-chromen-2-one]",inhibition at 1 µM,[5],< 10%
same,inhibition at 10 µM,[6],15.7%
same,inhibition at 100 µM,[7],71.8%
"O=c1oc2c(c(O)c1C(c1cccc(NC(=S)Nc3ccccc3)c1)C1CC1)CCCCCC2 (stereo not shown) [Example 366, Thiourea, N-[3-[cyclopropyl(5,6,7,8,9,10-hexahydro-4-hydroxy-2-oxo-2H-cycloocta[b]pyran-3-yl)methyl]phenyl]-N'-phenyl-]",inhibition at 1.1 µM,[13],40.3%
same,inhibition at 3.3 µM,[2],72.9%
same,inhibition at 10 µM,[3],92.2%
same,inhibition at 30 µM,[4],107%
"C[C@H](NC(=O)OC(C)(C)C)C(=O)Nc1cccc(C(c2c(O)c3c(oc2=O)CCCCCC3)C2CC2)c1 (stereo partly drawn) [Example 198, Carbamic acid, [2-[[3-[cyclopropyl(5,6,7,8,9,10-hexahydro-4-hydroxy-2-oxo-2H-cycloocta[b]pyran-3-yl)methyl]phenyl]amino]-1-(S)-methyl-2-oxyethyl]-, 1,1-dimethylethyl ester]",inhibition at 0.123 µM,,67.1%
same,inhibition at 0.37 µM,[8],91.9%
same,inhibition at 1.1 µM,[9],107%
same,inhibition at 3.3 µM,[10],111%
same,inhibition at 10 µM,[6],115%
same,inhibition at 30 µM,[11],116%
"CC(C)C(c1ccccc1)c1c(O)c2c(oc1=O)CCCCCC2 (stereo not shown) [Example 227, 2H-Cycloocta[b]pyran-2-one,5,6,7,8,9,10-hexahydro-4-hydroxy-3-(2-methyl-1-phenylpropyl)-]",inhibition at 0.37 µM,[8],41.7%
same,inhibition at 1.1 µM,[9],81.1%
same,inhibition at 3.3 µM,[10],91.1%
same,inhibition at 10 µM,[6],90.1%
same,inhibition at 30 µM,[11],80.9%
"CCC(c1cccc(NC(=O)CCC2CCCCC2)c1)c1c(O)c2ccccc2oc1=O (stereo not shown) [Example 56, Coumarin, 3-[1-[3-[(3-cyclohexyl-1-oxopropyl)amino]phenyl]propyl]-4-hydroxy-]",inhibition at 1 µM,[5],< 10%
same,inhibition at 10 µM,[6],< 10%
same,inhibition at 100 µM,[7],49.5%
"CCC(c1ccccc1)c1c(O)c2cc(N)ccc2oc1=O (stereo not shown) [Example 96, Coumarin, 6-amino-4-hydroxy-3-(1-phenylpropyl)-]",inhibition at 1 µM,[5],< 10%
same,inhibition at 10 µM,[6],< 10%
same,inhibition at 100 µM,[7],48.7%
"CN(C)c1cccc2c(S(=O)(=O)Nc3cccc(C(c4c(O)c5c(oc4=O)CCCCCC5)C4CC4)c3)cccc12 (stereo not shown) [Example 283, N-[3-[Cyclopropyl(5,6,7,8,9,10-hexahydro4-hydroxy-2-oxo-2H-cycloocta[b]pyran-3-yl)methyl]phenyl]-5-(dimethylamino)-1-naphthalenesulfonamide]",inhibition at 0.37 µM,[12],10.6%
same,inhibition at 1.1 µM,[13],42.3%
same,inhibition at 3.3 µM,[2],64.2%
same,inhibition at 10 µM,[3],85.1%
same,inhibition at 30 µM,[4],80.2%
